Data on five molecules can be found in PMC8744458 (Beilstein Journal of Organic Chemistry, 2022).

Where “and” joins values, the source holds several entries; their conditions need not be identical. Equal values may be shown once. Entries after “also recorded” stand apart in the source; their conditions may differ. Positions of bridges follow the written chain, without caps; N, C: chain ends. Non-standard residues stand in square brackets, D forms with d. Residues, ends and D or L forms follow the SMILES beside them. No end group written: not given here. *: point of attachment. FITC = O=C1OC2(c3ccc(O)cc3Oc3cc(O)ccc32)c2ccc(NC(=S)*)cc21; S5 = C=CCCC[C@](C)(N)C(=O)O

Test in data set [1]: not given
The source holds these as a separate data set.

Test in data set [2]: not given
The source holds these as a separate data set.

The target of another data set is proteinase K (Parengyodontium album, UniProt P06873). In words: Proteinase K stability assay. The data set is classed as in vitro ADME. The note with it: 0.5 mM peptide, 2.5 µg mL−1 proteinase K, Na2HPO4 buffer 100 mM pH 7.4 (with DMSO from stock), 25 °C, 120 min; samples at 0, 10, 20, 30, 60, 120 min; LC-MS at 280 nm. The protocol:
Proteinase K stability assays
The assay was performed using a modified protocol.[11] A 10 mM peptide stock solution was prepared in a mixture of Na2HPO4 buffer (100 mM, pH 7.4) and DMSO (9:1). The peptide stock solution (25 µL) was diluted with more Na 2HPO4 buffer (450 µL) and thoroughly mixed.
Proteolytic digestion was started by addition of a solution of Proteinase K ( 50 µg mL−1, activity 36.9 mAnsonU mg−1) in Na2HPO4 buffer (25 µL) and incubated for 120 min at 25 °C (resulting assay concentrations 0.5 mM peptide and 2.5 µg mL−1 proteinase K). For LC-MS analysis, a 50 µL sample was diluted with 50 µL of methanol containing 0.1% TFA (v/v) and spun down at […]
Reaction monitoring via LC-MS
Figure S8: Reaction monitoring via LC-MS at λ = 280 nm. A) Linear Peptide P6, samples were taken […]
at t = 0, 10, 20, 30, 60 and 120 min. […]
fragment Ac-ENPEWILDKHVQ-OH eluting at exactly the same retention time than peptide P6 (see mass spectra below at reaction times 0 and 120 min). For fragment assignments, see mass spectra below. B) SMC stapled peptide P5, samples were taken at t = 0, 10, 20, 30, 60 and 120 min. Compared to linear […]

The target of data set [3] is T1, β-catenin (Homo sapiens, UniProt P35222).
T1 construct: expression and purification of full-length β-catenin; His tag with TEV site (inferred from the pET28a-TEV vector name and Ni-NTA purification); host or cells: E. coli BL21(DE3)
T1 sequence (P35222 1-781): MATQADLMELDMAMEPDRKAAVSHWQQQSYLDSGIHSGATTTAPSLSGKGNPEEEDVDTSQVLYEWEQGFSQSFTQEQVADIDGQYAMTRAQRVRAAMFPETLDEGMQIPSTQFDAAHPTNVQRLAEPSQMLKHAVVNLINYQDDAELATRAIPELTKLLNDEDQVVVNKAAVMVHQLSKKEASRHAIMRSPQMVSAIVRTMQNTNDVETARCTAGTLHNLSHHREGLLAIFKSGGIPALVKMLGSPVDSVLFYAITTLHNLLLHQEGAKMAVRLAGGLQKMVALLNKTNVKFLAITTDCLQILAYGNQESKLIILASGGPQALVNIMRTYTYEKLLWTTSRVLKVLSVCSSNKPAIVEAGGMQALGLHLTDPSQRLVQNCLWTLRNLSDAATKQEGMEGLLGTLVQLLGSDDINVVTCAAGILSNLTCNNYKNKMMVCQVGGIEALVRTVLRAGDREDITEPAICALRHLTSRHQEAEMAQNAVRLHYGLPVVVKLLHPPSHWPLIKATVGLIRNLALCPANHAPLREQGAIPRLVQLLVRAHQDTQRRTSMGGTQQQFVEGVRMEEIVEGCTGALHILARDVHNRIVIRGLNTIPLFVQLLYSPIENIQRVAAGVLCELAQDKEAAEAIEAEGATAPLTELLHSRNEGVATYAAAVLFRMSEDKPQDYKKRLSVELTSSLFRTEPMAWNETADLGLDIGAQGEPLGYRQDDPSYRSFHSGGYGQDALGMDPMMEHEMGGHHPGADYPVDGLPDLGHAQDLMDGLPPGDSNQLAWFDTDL
Put plainly: Competitive fluorescence polarisation assay. The data set is classed as binding. The settings on record: unlabelled peptide titrated against tracer peptide fStAx-3 (10 nM final), β-catenin 3 µM final; FP buffer 1× PBS with 0.05% Tween20, pH 7.4; 4 °C, 1 h; biological duplicate and technical triplicate. As for the experimental part: Figure S6: Direct titration curve of fluorescence polarisation assay of FITC-labelled AxWt (fAxWt) and FITC-labelled RCM-stapled peptide StAx-3 (fStAx-3). Dissociation constants were determined to be Kd […]
competitive fluorescence polarisation assay (see below).
Competitive fluorescence polarisation assay
A stock solution of the FITC-labelled peptide in DMSO (20 µM) was diluted to 40 nM in FP buffer (1× PBS with 0.05% Tween20, pH 7.4). A β-Catenin stock solution with a concentration of 6 µM was prepared in FP buffer. Stock solutions of non-labelled peptides (1 mM) in DMSO were serially diluted (2.5-fold) in FP buffer. […]
Fluorescence polarisation was measured using a Tecan Spark 10M with λex = 485/20 nm and […]. Each sample was measured as biological duplicate and technical triplicate. […]
The equation used for Kd determination of unlabeled peptides is shown below with r as anisotropy, r0 as anisotropy of the free peptide, rb as anisotropy of the β-Catenin:FITC-labelled tracer peptide, Kd2 as dissociation constant between the non-labelled ligand and the protein, [L]t as total non-labelled ligand concentration and [L]st as total FITC-labelled peptide concentration. Kd1 is the apparent Kd that was determined in direct fluorescence polari sation assays for the labelled-tracer peptide. […]
fluorescence polarisation assay). […]

Data set [4] in a line: CD spectroscopy, calculated content of α-helix. The data set is classed as physicochemical. The settings on record: c = 100 µM in water, 20 °C, from MRE at 222 nm. The protocol: Figure 1 Analysis of the secondary structure by circular dichroism: CD spectra of both isomers of stapled peptide P5 (P5.1 and P5.2) and linear references (aAxWt, P6) (c = 100 µM) at 20 °C in water.
Table S1: Calculated contents of α-helix.
Peptide θ222 [mdeg] [θ]222 [deg cm2 dmol-1] a) MRE [deg cm2 dmol-1] b) α-Helix content [%]
a) [θ] = θ / (c * 10 * l) with c = 10-4 mol/L, l = 0.1 cm; b) MRE = [θ] / n; c) in brackets literature values for
FITC-labelled analogues, ref: Grossmann, T. N.; Yeh, J. T.-H.; Bowman, B. R.; Chu, Q.; Moellering, R.
For TFE titration experiments, peptide solutions in a mixture of TFE/H2O 4:1 were additionally
Reference peptides (linear and RCM stapled peptides)
Figure S2: CD spectra of reference peptides P6, aAxWt and aStAx-3, c = 100 µM in H2O. […]

The target of data set [5] is T2, β-catenin (Homo sapiens, UniProt P35222).
T2 chain: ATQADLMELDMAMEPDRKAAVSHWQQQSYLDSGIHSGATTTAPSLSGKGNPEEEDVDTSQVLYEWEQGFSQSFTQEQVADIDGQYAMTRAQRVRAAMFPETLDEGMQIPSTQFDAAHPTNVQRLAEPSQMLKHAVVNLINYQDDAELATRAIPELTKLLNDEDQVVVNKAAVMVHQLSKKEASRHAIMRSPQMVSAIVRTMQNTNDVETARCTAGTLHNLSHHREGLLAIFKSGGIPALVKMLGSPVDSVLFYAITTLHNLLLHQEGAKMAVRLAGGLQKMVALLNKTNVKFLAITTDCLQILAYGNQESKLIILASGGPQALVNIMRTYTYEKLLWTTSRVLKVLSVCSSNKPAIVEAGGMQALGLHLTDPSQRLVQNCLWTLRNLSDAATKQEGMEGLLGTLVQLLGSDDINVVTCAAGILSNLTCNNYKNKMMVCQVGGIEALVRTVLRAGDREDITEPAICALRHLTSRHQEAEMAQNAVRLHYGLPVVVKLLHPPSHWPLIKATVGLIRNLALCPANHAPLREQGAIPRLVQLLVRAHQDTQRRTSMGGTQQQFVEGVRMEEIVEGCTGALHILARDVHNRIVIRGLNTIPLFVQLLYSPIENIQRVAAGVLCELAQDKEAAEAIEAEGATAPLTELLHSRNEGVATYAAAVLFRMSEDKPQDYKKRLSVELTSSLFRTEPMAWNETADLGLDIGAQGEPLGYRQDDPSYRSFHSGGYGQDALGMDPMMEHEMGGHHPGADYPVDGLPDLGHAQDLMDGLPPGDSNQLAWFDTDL
In words: competitive fluorescence polarisation. For orientation: Polarisation of emitted light reports the rotation of a fluorescent probe.

In data set [6] the target is T2, β-catenin. In words: direct fluorescence polarisation.

proteinase K, sequence (P06873 106-384, species assumed): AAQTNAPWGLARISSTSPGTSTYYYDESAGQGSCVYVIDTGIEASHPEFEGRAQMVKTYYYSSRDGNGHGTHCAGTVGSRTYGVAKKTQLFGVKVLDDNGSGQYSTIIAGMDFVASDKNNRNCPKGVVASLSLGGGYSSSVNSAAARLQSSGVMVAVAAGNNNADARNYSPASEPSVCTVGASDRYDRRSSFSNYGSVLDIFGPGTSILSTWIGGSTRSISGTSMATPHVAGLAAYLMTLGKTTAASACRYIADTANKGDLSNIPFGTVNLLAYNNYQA

Take `CC[C@H](C)[C@@H]1NC(=O)[C@@H](NC(=O)[C@H](CCC(=O)O)NC(=O)[C@@H]2CCCN2C(=O)[C@H](CC(N)=O)NC(=O)[C@H](CCC(=O)O)NC(C)=O)Cc2c[nH]c3c(cccc23)-c2ccc(cc2)CCC(=O)NCCCC[C@@H](C(=O)N[C@@H](Cc2c[nH]cn2)C(=O)N[C@H](C(=O)N[C@@H](CCC(N)=O)C(=O)N[C@@H](CCCNC(=N)N)C(=O)N[C@H](C(=O)N[C@@H](CCSC)C(N)=O)C(C)C)C(C)C)NC(=O)[C@H](CC(=O)O)NC(=O)[C@H](CC(C)C)NC1=O` [P5]: the MRE (deg cm2 dmol-1) was -4690 and -6680. Further, the θ222 in data set [1] is -7.04 mdeg and -10 mdeg. The [θ]222 (deg cm2 dmol-1) in data set [2] is -70400 and -100000. In addition, the “Stability against proteinase K digestion (cleavage sites/fragments)” value on proteinase K is recorded as “two of three cleaving sites are blocked; also recorded: allows access to only one of the three cleavage sites; also recorded: higher stability”.
For the molecule `CC[C@H](C)[C@@H]1NC(=O)[C@@](C)(NC(=O)[C@H](CCC(=O)O)NC(=O)[C@@H]2CCCN2C(=O)[C@H](CC(N)=O)NC(=O)[C@H](CCC(=O)O)NC(C)=O)CCCC=CCCC[C@@](C)(C(=O)N[C@@H](Cc2c[nH]cn2)C(=O)N[C@H](C(=O)N[C@@H](CCC(N)=O)C(=O)N[C@@H](CCCNC(=N)N)C(=O)N[C@H](C(=O)N[C@@H](CCSC)C(N)=O)C(C)C)C(C)C)NC(=O)[C@H](CC(=O)O)NC(=O)[C@H](CC(C)C)NC1=O` [aStAx-3, reference compound] (Ac-ENPE[S5]ILD[S5]HVQRVM-NH2; staple 5-9), the MRE (deg cm2 dmol-1) was -10800. On β-catenin [3], the Kd – broadly, the constant that tells how readily two partners part at equilibrium – is 49 ± 26 nM. In addition, in data set [1], the θ222 was -16.2 mdeg. The same molecule displayed a [θ]222 (deg cm2 dmol-1) in data set [2] of -162000.
Molecule Ac-ENPEWILDKHVQRVM-NH2 [P6] had an MRE (deg cm2 dmol-1) of -3960. Besides, on β-catenin [3], the dissociation constant Kd is 1240 ± 162 nM. Moreover, in data set [4], the “α-Helix content calculated from CD spectra” value is on record as 13%. In addition, in data set [1], the θ222 is -5.94 mdeg. For the same molecule, in data set [2], the [θ]222 (deg cm2 dmol-1) is -59400. Further, the “Stability against proteinase K digestion (cleavage sites/fragments)” value at proteinase K was “degraded in three fragments; also recorded: cleaved within a period of 120 min to give three fragments”.

B1: aAxWt (axin CBD peptide) 467-481 (peptide)
chain: PESILDEHVQRVLRT
In the case of B1, the Kd with β-catenin [5] was 1450 nM.

B2: fStAx-3 (FITC-labelled RCM-stapled axin CBD peptide) 467-481 (peptide)
chain: {FITC}-PESILDEHVQRVLRT
modifications: staple (positions not given here); not fully specified (residues 5, 9, bridges); also: all-hydrocarbon staple at 471/475 (positions 5, 9), stapling residues not named
In turn, B2 registered a Kd with β-catenin [6] of 63 nM.
